Assay results: ChEMBL document CHEMBL4359928, “Scaffold Morphing To Identify Novel DprE1 Inhibitors with Antimycobacterial Activity” (ACS Med Chem Lett, 2019)
≈ marks a conversion by molar mass, not a printed value.

Key:
Assay type in all cases: functional
[1] = system: Mycobacterium tuberculosis; test: Antimycobacterial activity against BTZ043-resistant Mycobacterium tuberculosis H37Rv harbouring DprE1 C387G mutant assessed as reduction in bacterial cell growth
[2] = system: Mycobacterium tuberculosis; test: Antimycobacterial activity against BTZ043-resistant Mycobacterium tuberculosis H37Rv harbouring DprE1 C387S mutant assessed as reduction in bacterial cell growth
[3] = system: Mycobacterium tuberculosis; test: Antimycobacterial activity against Mycobacterium tuberculosis H37Rv overexpressing DprE1 assessed as reduction in bacterial cell growth
[4] = system: Mycobacterium tuberculosis; test: Antimycobacterial activity against Mycobacterium tuberculosis H37Rv harbouring DprE1 Y314S mutant assessed as reduction in bacterial cell growth
[5] = system: Mycobacterium tuberculosis; test: Antimycobacterial activity against 1,4-azaindole resistant Mycobacterium tuberculosis H37Rv harbouring DprE1 Y314H mutant assessed as reduction in bacterial cell growth
[6] = system: Mycobacterium tuberculosis; test: Ratio of MIC for Mycobacterium tuberculosis H37Rv overexpressing DprE1 to MIC for wild type Mycobacterium tuberculosis H37Rv
[7] = system: Mycobacterium tuberculosis; test: Ratio of MIC for 1,4 azaindole-resistant Mycobacterium tuberculosis H37Rv harboring DprE1 Y314H mutant to MIC for wild type Mycobacterium tuberculosis H37Rv
[8] = Mycobacterium tuberculosis, H37Rv, read-out: MIC

In the case of `NNC(=O)c1ccncc1` [ISONIAZID], the MIC [1] is reported as 0.44 µM (≈ 0.0603 µg/mL), the MIC [2] is reported as 0.44 µM (≈ 0.0603 µg/mL) and the MIC [3, 8] is reported as 0.22 µM (≈ 0.0302 µg/mL). The MIC [4] was 0.22 µM (≈ 0.0302 µg/mL) and the MIC [5] was 0.44 µM (≈ 0.0603 µg/mL).

`COc1ncnc(Cn2cnc3c(C(=O)NCCF)cccc32)c1C` gave an MIC [1] of 0.78 µM (≈ 0.268 µg/mL), an MIC [2] of 0.78 µM (≈ 0.268 µg/mL) and an MIC [3, 8] of 25 to 50 µM (≈ 8.58 to 17.2 µg/mL). The MIC [4] was 25 µM (≈ 8.58 µg/mL), the MIC [5] was 25 to 50 µM and the Ratio [6] was 20. The Ratio [7] was 20.

With `C[C@H]1COC2(CCN(c3nc(=O)c4cc(C(F)(F)F)cc([N+](=O)[O-])c4s3)CC2)O1` [BTZ-043] the MIC [1] was 25 µM (≈ 10.8 µg/mL), the MIC [2] was 25 µM (≈ 10.8 µg/mL) and the MIC [3] was 12.5 µM (≈ 5.39 µg/mL). It also gave an MIC [4] of 0.006 µM (≈ 0.00259 µg/mL) and an MIC [5] of 0.003 µM (≈ 0.00129 µg/mL).

`CO[C@H]1/C=C/O[C@@]2(C)Oc3c(C)c(O)c4c(O)c(c(/C=N/N5CCN(C)CC5)c(O)c4c3C2=O)NC(=O)/C(C)=C\C=C\[C@H](C)[C@H](O)[C@@H](C)[C@@H](O)[C@@H](C)[C@H](OC(C)=O)[C@@H]1C` [RIFAMPIN] was tested, and the MIC [1] was 0.005 µM (≈ 0.00411 µg/mL), the MIC [2] was 0.005 µM (≈ 0.00411 µg/mL) and the MIC [3, 8] was 0.005 µM (≈ 0.00411 µg/mL).
